How the values were obtained:
[1] = tested on: S. pneumoniae D39V; test: Bliss interaction score (quartile over a dose matrix) (fitness difference); higher = more antagonism (negative = synergy)
Method in brief: (§1)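 The Bliss score subtracts expected fitness, the product of the single-drug fitness values, from observed fitness. Fitness is plate-normalised OD595 at entry into stationary phase, relative to the robust no-drug mean and capped at 1, with single-drug fitness inferred from combinations. Summaries are quartiles over technical, biological and donor/recipient replicates.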

[2] = tested on: S. aureus DSM 20231; test: as above
Method in brief: as §1

[3] = tested on: B. subtilis 168; test: as above
Method in brief: as §1

[4] = tested on: S. aureus Newman; test: as above
Method in brief: as §1

[5] = tested on: S. pneumoniae D39V; test: fitness (endpoint OD595 vs no drug) (fraction); higher = more growth
Method in brief: (§2)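 Fitness compares growth at the stationary-phase transition with the robust mean of no-drug control wells, as a ratio of optical densities. The ratio is capped at 1. Wells of 384-well plates held 30 µl, or 55 µl for S. pneumoniae, inoculated at OD595 0.01. Readings at OD595 every 30 min for 14 h at 37 °C were corrected against the first reading.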

[6] = tested on: S. aureus DSM 20231; test: as above
Method in brief: as §2

[7] = tested on: S. aureus Newman; test: as above
Method in brief: as §2
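Throughout, for Bliss interaction score (quartile over a dose matrix): first quartile when negative (synergy) and third quartile when positive (antagonism).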

COc1ccc(C[C@H](N)C(=O)N[C@H]2[C@@H](O)[C@H](n3cnc4c(N(C)C)ncnc43)O[C@@H]2CO)cc1 [Puromycin] + Cn1nnc(-c2ccc(-c3ccc(N4C[C@H](CO)OC4=O)cc3F)cn2)n1 [Tedizolid]
Conditions	Bliss interaction score
[1]	-0.1
[2]	-0.0959
[3]	-0.0598
[4]	0.0352

fitness
Conditions	partner 0.03125 µg/mL	partner 0.0625 µg/mL	partner 0.125 µg/mL	partner 0.25 µg/mL
[5], first compound 1 µg/mL	0.967	0.966	0.787	–
[5], first compound 2 µg/mL	0.958	0.935	0.78	–
[5], first compound 4 µg/mL	0.819	0.828	0.756	–
[6], first compound 0.39 µg/mL	–	0.879	0.7	0.24
[6], first compound 0.78 µg/mL	–	0.831	0.794	0.267
[6], first compound 1.56 µg/mL	–	0.827	–	0.157
[7], first compound 0.39 µg/mL	–	0.987	0.884	0.479
[7], first compound 0.78 µg/mL	–	0.935	0.834	0.404
[7], first compound 1.56 µg/mL	–	0.942	0.829	0.304

fitness, one replicate
Conditions	partner 0.0625 µg/mL	partner 0.125 µg/mL	partner 0.25 µg/mL	partner 0.5 µg/mL
[5], first compound 1 µg/mL	–	–	0.652	0.184
[5], first compound 2 µg/mL	–	–	0.686	0.284
[5], first compound 4 µg/mL	–	–	0.499	0.234
[6], first compound 3.12 µg/mL	0.503	0.148	0.0225	–
[6], first compound 6.24 µg/mL	0.224	0.0566	0.0172	–

COc1ccc(C[C@H](N)C(=O)N[C@H]2[C@@H](O)[C@H](n3cnc4c(N(C)C)ncnc43)O[C@@H]2CO)cc1 [Puromycin] + CN[C@H](CC(C)C)C(=O)N[C@H]1C(=O)N[C@@H](CC(N)=O)C(=O)N[C@H]2C(=O)N[C@H]3C(=O)N[C@H](C(=O)N[C@H](C(=O)O)c4cc(O)cc(O)c4-c4cc3ccc4O)[C@H](O)c3ccc(c(Cl)c3)Oc3cc2cc(c3O[C@@H]2O[C@H](CO)[C@@H](O)[C@H](O)[C@H]2O[C@H]2C[C@](C)(N)[C@H](O)[C@H](C)O2)Oc2ccc(cc2Cl)[C@H]1O [Vancomycin]
Conditions	Bliss interaction score
[1]	-0.0711
[2]	0.0659
[3]	-0.0411
[4]	0.0575

fitness
Conditions	[5]	[6]	[7]
first compound 0.39 µg/mL, partner 0.1875 µg/mL	–	≥ 1	≥ 1
first compound 0.39 µg/mL, partner 0.375 µg/mL	–	0.986	0.996
first compound 0.39 µg/mL, partner 0.75 µg/mL	–	≥ 1	≥ 1
first compound 0.78 µg/mL, partner 0.1875 µg/mL	–	≥ 1	≥ 1
first compound 0.78 µg/mL, partner 0.375 µg/mL	–	≥ 1	0.994
first compound 0.78 µg/mL, partner 0.75 µg/mL	–	≥ 1	0.979
first compound 1 µg/mL, partner 0.03125 µg/mL	0.999	–	–
first compound 1 µg/mL, partner 0.0625 µg/mL	0.989	–	–
first compound 1 µg/mL, partner 0.125 µg/mL	0.8	–	–
first compound 1.56 µg/mL, partner 0.1875 µg/mL	–	≥ 1	≥ 1
first compound 1.56 µg/mL, partner 0.375 µg/mL	–	≥ 1	0.978
first compound 1.56 µg/mL, partner 0.75 µg/mL	–	≥ 1	0.999
first compound 2 µg/mL, partner 0.03125 µg/mL	0.985	–	–
first compound 2 µg/mL, partner 0.0625 µg/mL	0.969	–	–
first compound 2 µg/mL, partner 0.125 µg/mL	0.849	–	–
first compound 4 µg/mL, partner 0.03125 µg/mL	0.808	–	–
first compound 4 µg/mL, partner 0.0625 µg/mL	0.822	–	–

one replicate
Conditions	fitness
[5], first compound 1 µg/mL, partner 0.25 µg/mL	0.088
[5], first compound 1 µg/mL, partner 0.5 µg/mL	0.0805
[5], first compound 2 µg/mL, partner 0.25 µg/mL	0.223
[5], first compound 2 µg/mL, partner 0.5 µg/mL	0.125
[5], first compound 4 µg/mL, partner 0.25 µg/mL	0.141
[5], first compound 4 µg/mL, partner 0.5 µg/mL	0.121
[6], first compound 3.12 µg/mL, partner 0.1875 µg/mL	≥ 1
[6], first compound 3.12 µg/mL, partner 0.375 µg/mL	0.915
[6], first compound 3.12 µg/mL, partner 0.75 µg/mL	0.922
[6], first compound 6.24 µg/mL, partner 0.1875 µg/mL	0.642
[6], first compound 6.24 µg/mL, partner 0.375 µg/mL	0.737
[6], first compound 6.24 µg/mL, partner 0.75 µg/mL	0.716

Cc1ncc([N+](=O)[O-])n1CCO [Metronidazole] + CN[C@H](CC(C)C)C(=O)N[C@H]1C(=O)N[C@@H](CC(N)=O)C(=O)N[C@H]2C(=O)N[C@H]3C(=O)N[C@H](C(=O)N[C@H](C(=O)O)c4cc(O)cc(O)c4-c4cc3ccc4O)[C@H](O)c3ccc(c(Cl)c3)Oc3cc2cc(c3O[C@@H]2O[C@H](CO)[C@@H](O)[C@H](O)[C@H]2O[C@H]2C[C@](C)(N)[C@H](O)[C@H](C)O2)Oc2ccc(cc2Cl)[C@H]1O [Vancomycin]
Conditions	Bliss interaction score
[1]	0.123
[2]	0.033
[3]	0.0651
[4]	0.0696

Conditions	fitness
[5], first compound 1.073 µg/mL, partner 0.125 µg/mL	≥ 1
[5], first compound 1.073 µg/mL, partner 0.5 µg/mL	0.0194
[5], first compound 1.25 µg/mL, partner 0.03125 µg/mL	0.992
[5], first compound 1.25 µg/mL, partner 0.0625 µg/mL	0.959
[5], first compound 1.25 µg/mL, partner 0.125 µg/mL	0.825
[5], first compound 2.145 µg/mL, partner 0.125 µg/mL	0.895
[5], first compound 2.145 µg/mL, partner 0.5 µg/mL	0.0439
[5], first compound 2.5 µg/mL, partner 0.03125 µg/mL	≥ 1
[5], first compound 2.5 µg/mL, partner 0.0625 µg/mL	0.966
[5], first compound 2.5 µg/mL, partner 0.125 µg/mL	0.807
[5], first compound 4.29 µg/mL, partner 0.125 µg/mL	≥ 1
[5], first compound 4.29 µg/mL, partner 0.5 µg/mL	0.108
[5], first compound 5 µg/mL, partner 0.03125 µg/mL	0.986
[5], first compound 5 µg/mL, partner 0.0625 µg/mL	0.938
[5], first compound 5 µg/mL, partner 0.125 µg/mL	0.792
[6], first compound 0.625 µg/mL, partner 0.1875 µg/mL	≥ 1
[6], first compound 0.625 µg/mL, partner 0.375 µg/mL	≥ 1
[6], first compound 0.625 µg/mL, partner 0.75 µg/mL	≥ 1
[6], first compound 1.25 µg/mL, partner 0.1875 µg/mL	≥ 1
[6], first compound 1.25 µg/mL, partner 0.375 µg/mL	≥ 1
[6], first compound 1.25 µg/mL, partner 0.75 µg/mL	≥ 1
[6], first compound 2.5 µg/mL, partner 0.1875 µg/mL	≥ 1
[6], first compound 2.5 µg/mL, partner 0.375 µg/mL	1
[6], first compound 2.5 µg/mL, partner 0.75 µg/mL	0.995
[7], first compound 0.625 µg/mL, partner 0.1875 µg/mL	0.987
[7], first compound 0.625 µg/mL, partner 0.375 µg/mL	≥ 1
[7], first compound 0.625 µg/mL, partner 0.75 µg/mL	≥ 1
[7], first compound 1.25 µg/mL, partner 0.1875 µg/mL	0.968
[7], first compound 1.25 µg/mL, partner 0.375 µg/mL	≥ 1
[7], first compound 1.25 µg/mL, partner 0.75 µg/mL	0.953
[7], first compound 2.5 µg/mL, partner 0.1875 µg/mL	≥ 1
[7], first compound 2.5 µg/mL, partner 0.375 µg/mL	≥ 1
[7], first compound 2.5 µg/mL, partner 0.75 µg/mL	≥ 1

fitness, [7], one replicate
Conditions	first compound 0.781 µg/mL	first compound 1.562 µg/mL	first compound 3.124 µg/mL
partner 0.1875 µg/mL	≥ 1	≥ 1	0.995
partner 0.375 µg/mL	≥ 1	0.995	0.99
partner 0.75 µg/mL	≥ 1	0.99	≥ 1

CO/N=C(\C(=O)N[C@@H]1C(=O)N2C(C(=O)O)=C(COC(C)=O)CS[C@H]12)c1csc(N)n1 [Cefotaxime] + Cn1nnc(-c2ccc(-c3ccc(N4C[C@H](CO)OC4=O)cc3F)cn2)n1 [Tedizolid]
Conditions	Bliss interaction score
[1]	0.0955
[2]	0.114
[3]	0.0923
[4]	-0.105

fitness
Conditions	partner 0.03125 µg/mL	partner 0.0625 µg/mL	partner 0.125 µg/mL	partner 0.25 µg/mL	partner 0.5 µg/mL
[5], first compound 0.0018 µg/mL	0.968	0.969	0.844	0.482	0.172
[5], first compound 0.0035 µg/mL	0.953	0.972	0.847	0.468	0.14
[5], first compound 0.007 µg/mL	0.95	0.958	0.812	0.427	0.104
[6], first compound 0.078 µg/mL	–	0.767	0.718	0.532	–
[6], first compound 0.156 µg/mL	–	0.761	0.608	0.509	–
[6], first compound 0.312 µg/mL	–	0.691	0.602	0.448	–
[7], first compound 0.078 µg/mL	–	0.592	0.475	0.217	–
[7], first compound 0.156 µg/mL	–	0.455	0.338	0.0974	–
[7], first compound 0.312 µg/mL	–	0.232	0.145	0.0726	–
[7], first compound 0.625 µg/mL	–	0.0654	0.0082	0.0399	–
[7], first compound 1.25 µg/mL	–	0.021	0.0172	0.03	–
[7], first compound 2.5 µg/mL	–	0.0122	0.0108	0.0325	–

[6], first compound 0.039 µg/mL, one replicate
Conditions	fitness
partner 0.0625 µg/mL	0.806
partner 0.125 µg/mL	0.762
partner 0.25 µg/mL	0.643

Source: the supplement of paper PMC10627819
